Here are results for 21 compounds from ChEMBL document CHEMBL1134205, “Development of novel telomerase inhibitors based on a bisindole unit” (Bioorg Med Chem Lett, 2001).

SMILES strings stand for the structures.

Assay [1] addresses T1, Telomerase reverse transcriptase (Homo sapiens, UniProt O14746). The assay can be described thus: Inhibitory concentration against human telomerase.
Assay [2] has as its target T1, Telomerase reverse transcriptase. The assay can be described thus: Inhibition ratio of human telomerase was determined by stretch PCR assay with use of 100 uM of the ligand.

T1 sequence (O14746 whole entry): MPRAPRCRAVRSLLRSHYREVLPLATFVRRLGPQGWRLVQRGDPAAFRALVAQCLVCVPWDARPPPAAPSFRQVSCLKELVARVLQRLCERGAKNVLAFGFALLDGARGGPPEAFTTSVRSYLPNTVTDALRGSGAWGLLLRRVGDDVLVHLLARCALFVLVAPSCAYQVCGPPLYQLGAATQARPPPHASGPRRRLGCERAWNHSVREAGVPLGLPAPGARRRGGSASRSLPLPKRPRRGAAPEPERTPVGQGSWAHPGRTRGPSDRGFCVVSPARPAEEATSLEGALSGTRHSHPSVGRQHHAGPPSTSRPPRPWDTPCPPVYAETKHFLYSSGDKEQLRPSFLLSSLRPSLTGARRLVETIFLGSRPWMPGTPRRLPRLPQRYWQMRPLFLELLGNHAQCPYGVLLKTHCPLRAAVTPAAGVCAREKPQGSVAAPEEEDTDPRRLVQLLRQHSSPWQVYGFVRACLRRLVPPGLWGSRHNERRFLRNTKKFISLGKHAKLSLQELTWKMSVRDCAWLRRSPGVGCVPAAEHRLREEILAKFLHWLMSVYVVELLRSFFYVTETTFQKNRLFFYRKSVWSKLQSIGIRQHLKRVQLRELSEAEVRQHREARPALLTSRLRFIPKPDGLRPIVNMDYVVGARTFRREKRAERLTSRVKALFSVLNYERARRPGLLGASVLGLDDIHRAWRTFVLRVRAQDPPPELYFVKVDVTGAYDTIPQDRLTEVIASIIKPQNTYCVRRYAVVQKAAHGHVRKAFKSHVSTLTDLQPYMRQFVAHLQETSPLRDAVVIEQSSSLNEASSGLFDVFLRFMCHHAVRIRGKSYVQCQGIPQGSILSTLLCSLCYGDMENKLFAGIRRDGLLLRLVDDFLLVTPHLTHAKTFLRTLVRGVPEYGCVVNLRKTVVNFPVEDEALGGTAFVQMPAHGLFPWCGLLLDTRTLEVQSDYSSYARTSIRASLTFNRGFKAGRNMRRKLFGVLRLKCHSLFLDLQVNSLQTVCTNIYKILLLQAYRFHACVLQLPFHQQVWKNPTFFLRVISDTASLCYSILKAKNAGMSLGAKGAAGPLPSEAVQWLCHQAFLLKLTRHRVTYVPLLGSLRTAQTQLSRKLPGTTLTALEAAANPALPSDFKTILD

Take `Cc1cn(CCCn2cc(CC(=O)NCCCCCCCCCCCCOP(=O)(OCCC#N)Oc3cccc(Cl)c3)c3ccccc32)c2ccccc12` (configuration not stated): in assay [1], the IC50 was over 100 µM.
In assay [1], `O=C(O)CCCCCCCCCCCNC(=O)Cc1cn(CCCN2CCCC2)c2ccccc12` had an IC50 of over 100 µM. In assay [2], the inhibition was found to be 13%.
In assay [1], `O=C(O)CCCCCCCCCCCNC(=O)COc1c(-c2cc3ccccc3[nH]2)[nH]c2ccccc12` gave an IC50 of over 100 µM.
`O=C(O)CCCCCCCCCCCNC(=O)Cc1c2n(c3ccccc13)CCn1c-2cc2ccccc21`: 62 µM corresponded to half-maximal inhibition in assay [1] (IC50). Further, the inhibition in assay [2] worked out at 62%.
`O=C(O)CCCCCCCCCCCNC(=O)Cc1cn(CCOc2ccccc2)c2ccccc12`: in assay [2], the inhibition is 0%.
Take `N#CCCOP(=O)(OCCCCCCCCCCCCNC(=O)Cc1cn(CCn2ccc3cc(Cl)ccc32)c2ccccc12)Oc1cccc(Cl)c1` (configuration not stated): in assay [1], the IC50 is over 100 µM.
On the same count and under the same terms, then `O=C(Cc1cn(CCn2ccc3cc(Cl)ccc32)c2ccccc12)NCCCCCCCCCCCCOP(=O)(O)OC1CCCCC1`, with 8.7 µM.
`Cc1c2n(c3ccccc13)CCCn1c-2c(CC(=O)NCCCCCCCCCCCC(=O)O)c2ccccc21` displayed an IC50 in assay [1] of 50 µM. Further, the inhibition in assay [2] was determined as 82%.
Taken in the same sequence, the figures for `O=C(O)CCCCCCCCCCCNC(=O)Cc1cn(CCn2ccc3ccccc32)c2ccccc12` were 41 µM and 77%.
As to `O=C(Cc1cn(CCn2ccc3cc(Cl)ccc32)c2ccccc12)NCCCCCCCCCCCCOP(=O)(O)Oc1cccc(Cl)c1`, the IC50 in assay [1] worked out at 2.5 µM.
Regarding `O=C(O)CCCCCCCCCCCNC(=O)Cc1cn(CCCn2ccc3ccccc32)c2ccccc12`, in assay [1], 92 µM corresponded to half-maximal inhibition (IC50). Moreover, the inhibition in assay [2] stood at 46%.
`Cc1cn(CCCn2cc(CC(=O)NCCCCCCCCCCCCOP(=O)(O)Oc3cccc(Cl)c3)c3ccccc32)c2ccccc12` displayed an IC50 in assay [1] of 3.4 µM.
In assay [1], `Cc1cn(CCCn2cc(CC(=O)NCCCCCCCCCCCC(=O)O)c3ccccc32)c2ccccc12` yielded an IC50 of 20 µM. Further, in assay [2], the inhibition came out at 100%.
In the same order, the values of `O=C(O)CCCCCCCCCCCNC(=O)Cc1cn(CCCOC2CCCCC2)c2ccccc12` are 67 µM and 75%.
In the same order, the values of `O=C(O)CCCCCCCCCCCNC(=O)Cc1cn(CCOc2cccc3ccccc23)c2ccccc12` are 35 µM and 65%.
In the same order, the values of `O=C(O)CCCCCCCCCCCNC(=O)Cc1cn(CCCOc2ccccc2)c2ccccc12` are 33 µM and 75%.
In turn, `Cc1cn(CCn2cc(CC(=O)NCCCCCCCCCCCC(=O)O)c3ccccc32)c2ccccc12` returned an IC50 in assay [1] of over 100 µM. In addition, the inhibition in assay [2] was 7%.
`O=C(Cc1cn(CCCn2cccc2)c2ccccc12)NCCCCCCCCCCCOP(=O)(O)c1ccccc1Cl` showed an IC50 in assay [1] of 4.2 µM.
On the same count and under the same terms, as for `N#CCCOP(=O)(O)OCCCCCCCCCCCCNC(=O)Cc1cn(CCn2ccc3cc(Cl)ccc32)c2ccccc12`, the figure is over 100 µM.
In assay [1], `O=C(Cc1cn(CCn2ccc3cc(Cl)ccc32)c2ccccc12)NCCCCCCCCCCCCOP(=O)(O)Oc1ccccc1` had a half-maximal inhibitory concentration (IC50) of 6.7 µM.
In assay [1], `O=C(O)CCCCCCCCCCCNC(=O)Cc1cn(CCCn2cccc2)c2ccccc12` yielded an IC50 of over 100 µM. In assay [2], the inhibition amounted to 0%.
